Calls of active or inactive are those of the source. The calls are words filed in the database; no cut-off is given here.
System: Platelet
Assay: Inhibition of collagen-induced human platelet aggregation after 3 mins by light transmission aggregometry
Format: functional, cell-based
Conditions: for IC50: 0.05 h

| Compound | IC50 [µM] | inhibition |
| --- | --- | --- |
| OC[C@H]1O[C@@H](n2cnc3c(NCc4ccc(O)cc4)ncnc32)[C@H](O)[C@@H]1O | 6.77 |  |
| c1coc(CNc2ncnc3[nH]cnc23)c1 |  | Active |
| OC[C@H]1O[C@@H](n2cnc3c(NCc4ccco4)ncnc32)[C@H](O)[C@@H]1O [KINETIN RIBOSIDE] | 41.2 |  |
| OC[C@H]1O[C@@H](n2cnc3c(NCc4ccccc4)ncnc32)[C@H](O)[C@@H]1O [N6-BENZYLADENOSINE] | 37.1 |  |
| CC(C)=CCNc1ncnc2c1ncn2[C@@H]1O[C@H](CO)[C@@H](O)[C@H]1O [RIBOPRINE] | 142 |  |

Source: ChEMBL document CHEMBL3351821, “Naturally occurring N(6)-substituted adenosines (cytokinin ribosides) are in vitro inhibitors of platelet aggregation: an in silico evaluation of their interaction with the P2Y(12) receptor” (Bioorg Med Chem Lett, 2014)
